Measured values: PMC10952582, “Pregnenolone sulfate analogues differentially modulate GABAA receptor closed/desensitised states” (British Journal of Pharmacology, 2023)

What was measured:
α1β3γ2L GABAAR [1] = molecular target: T1, α1β3γ2L GABAAR (Mus musculus, UniProt P22723+P62812+P63080); test: Whole-cell voltage-clamp electrophysiology, wild-type α1β3γ2L GABAARs expressed in HEK cells; type: cell-based, murine
T1 construct: expressed in transfected cells; host or cells: HEK 293 cells (ATCC CRL-1573)
T1 sequence (P62812 28-455): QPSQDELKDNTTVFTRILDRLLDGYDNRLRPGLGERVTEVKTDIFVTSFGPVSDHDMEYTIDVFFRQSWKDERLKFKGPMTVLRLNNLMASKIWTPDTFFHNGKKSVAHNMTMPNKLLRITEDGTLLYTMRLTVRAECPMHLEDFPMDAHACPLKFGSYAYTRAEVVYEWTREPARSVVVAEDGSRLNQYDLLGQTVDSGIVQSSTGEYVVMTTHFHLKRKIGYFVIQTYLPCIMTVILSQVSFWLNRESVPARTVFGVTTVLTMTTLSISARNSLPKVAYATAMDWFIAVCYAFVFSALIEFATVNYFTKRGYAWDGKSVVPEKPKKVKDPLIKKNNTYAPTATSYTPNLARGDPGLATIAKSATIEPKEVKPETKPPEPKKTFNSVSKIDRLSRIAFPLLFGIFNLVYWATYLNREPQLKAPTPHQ
T1 sequence (P63080 26-473 partner): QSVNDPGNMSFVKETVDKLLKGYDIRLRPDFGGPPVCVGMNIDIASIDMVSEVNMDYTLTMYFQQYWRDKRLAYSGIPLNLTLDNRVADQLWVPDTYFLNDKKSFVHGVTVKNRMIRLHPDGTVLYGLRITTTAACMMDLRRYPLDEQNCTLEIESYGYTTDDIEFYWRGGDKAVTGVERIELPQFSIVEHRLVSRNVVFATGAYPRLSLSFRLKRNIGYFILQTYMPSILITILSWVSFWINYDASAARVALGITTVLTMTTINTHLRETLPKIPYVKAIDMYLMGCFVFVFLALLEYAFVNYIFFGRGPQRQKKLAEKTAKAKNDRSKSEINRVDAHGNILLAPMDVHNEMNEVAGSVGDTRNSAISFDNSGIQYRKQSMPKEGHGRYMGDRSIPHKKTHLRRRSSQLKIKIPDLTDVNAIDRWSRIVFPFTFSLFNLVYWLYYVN
T1 sequence (P22723 39-474 partner): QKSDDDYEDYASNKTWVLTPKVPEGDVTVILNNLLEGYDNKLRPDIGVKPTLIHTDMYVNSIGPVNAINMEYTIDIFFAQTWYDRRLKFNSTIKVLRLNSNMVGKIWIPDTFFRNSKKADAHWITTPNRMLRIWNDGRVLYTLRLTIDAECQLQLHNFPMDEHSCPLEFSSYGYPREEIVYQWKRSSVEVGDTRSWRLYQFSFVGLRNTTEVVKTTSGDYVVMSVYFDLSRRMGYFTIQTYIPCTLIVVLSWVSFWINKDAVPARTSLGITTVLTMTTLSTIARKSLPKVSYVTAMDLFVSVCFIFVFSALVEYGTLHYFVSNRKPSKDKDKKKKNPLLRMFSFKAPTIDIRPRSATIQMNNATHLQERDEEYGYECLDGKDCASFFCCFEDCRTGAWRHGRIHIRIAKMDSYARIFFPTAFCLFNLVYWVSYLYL
Experimental: (§1) HEK 293 cells (ATCC Cat# CRL‐1573, RRID:CVCL_0045) were maintained and transfected under standard conditions. In brief, cells were grown in monolayers in Dulbecco's modified Eagle's medium supplemented with 10% v/v fetal calf serum, 100 U·ml^−1 of penicillin‐G and 100 μg·ml^−1 of streptomycin and incubated at 37°C in humidified 95% air/5% CO2.
(§2) Before transfection, HEK cells were plated onto 22 mm of glass coverslips (VWR) coated in poly‐L‐lysine (Sigma). Cells were transfected with α1 (wild‐type [wt] or mutant [mut]), β3 (wt), γ2L (wt or mut) and enhanced green fluorescent protein (eGFP) in an equimolar ratio (1:1:1:1), using a calcium‐phosphate precipitation protocol. The transfection solution was prepared from 4 μg of cDNA per coverslip, 20 μl of 340 mM of CaCl2 and 24 μl of 2× HEPES‐buffered saline (HBS) (50 mM of HEPES, 280 mM of NaCl and 2.8 mM of Na2HPO4). Cells were selected for electrophysiology after 16–30 h based on their morphology and moderate GFP fluorescence.
(§3) Coverslips with transfected HEK cells were transferred into a recording chamber on a Nikon Eclipse FN1 microscope with a 470‐nm LED for GFP fluorescence. Cells were continuously perfused with Krebs solution containing (mM) 140 NaCl, 4.7 KCl, 1.2 MgCl2, 2.52 CaCl2, 11 glucose and 5 HEPES (pH 7.4). Patch pipettes (thin‐walled filamented borosilicate glass capillaries; TW150F‐4; WPI, USA; 3–4 MΩ) were filled with an intracellular solution containing (mM) 140 CsCl, 2 NaCl, 2 MgCl2, 5 EGTA, 10 HEPES, 0.5 CaCl2, 2 Na‐ATP and 0.5 Na‐GTP (pH 7.2). Drugs were applied to cells using a Y‐tube delivery system (Mortensen & Smart, [2007]), with the PS analogues pre‐applied 10–12 s before co‐application with GABA.
(§4) HEK cells were voltage clamped at −30 mV using an Axopatch 200B amplifier (Molecular Devices, USA), and whole‐cell currents were filtered at 5 kHz (−36 dB), digitised at 50 kHz via a Digidata 1322A (Molecular Devices) and recorded to a Dell Optiplex 990 using Clampex 10.2 (Molecular Devices). Series resistance was compensated at 60%–70%, and only data with <20% deviation in series resistance would be included in subsequent analyses.
(§5) Weighted time constants for the decay phase (τw) were calculated by fitting a biexponential curve to the current decay waveform and applying the following equation: τw=A1.τ1+A2.τ2/A1+A2, where τ1 and τ2 represent time constants for the two exponential components of the decay phase and A1 and A2 are their relative area contributions.
(§6) Current responses from voltage‐clamp experiments were measured, and decays fitted using ClampFit 10.2 (Molecular Devices) to determine the respective time constants. In Origin, data were plotted as concentration–response curves, and curves fitted using the following inhibition equation: I/Imax=1−B^n/IC50^n+B^n, where I is the current response, B is the concentration of the PS analogue, n is the slope coefficient and IC50 is the analogue concentration producing 50% inhibition of GABA current (inhibitory potency). Potency values are presented as pIC50 with SEM values. The mean was transformed into a molar concentration by pIC50 = −log IC50. Other data are represented as the mean ± SEM.

α1β3γ2L GABAAR [2] = molecular target: T2, α1β3γ2L GABAAR (Mus musculus, UniProt P62812); test: as above; type: cell-based, murine; conditions: for mean (weighted) decay time (τw) of GABA current: 1 nM PS analogue, 30 μM GABA
T2 construct: expressed in transfected cells; host or cells: HEK 293 cells (ATCC CRL-1573)
T2 sequence (P62812 28-455): as the sequence (P62812 28-455) above
T2 sequence (P63080 26-473 partner): as the sequence (P63080 26-473 partner) above
T2 sequence (P22723 39-474 partner): as the sequence (P22723 39-474 partner) above
Experimental: as §1, §2, §3, §4, §5, §6

α1F295Aβ3γ2L GABAAR = molecular target: T3, α1F295Aβ3γ2L GABAAR (Mus musculus, UniProt P22723+P62812+P63080, F322A); test: Whole-cell voltage-clamp electrophysiology, mutant α1F295Aβ3γ2L in HEK cells; type: cell-based, murine
T3 construct: expressed in transfected cells; host or cells: HEK 293 cells (ATCC CRL-1573)
T3 sequence (P62812 28-455 F322A): as the sequence (P62812 28-455) above, with F295A counted along it
T3 sequence (P63080 26-473 partner): as the sequence (P63080 26-473 partner) above
T3 sequence (P22723 39-474 partner): as the sequence (P22723 39-474 partner) above
Experimental: as §1, §2, §3, §4, §5, §6

α1F399Aβ3γ2L GABAAR = molecular target: T4, α1F399Aβ3γ2L GABAAR (Mus musculus, UniProt P22723+P62812+P63080, F426A); test: Whole-cell voltage-clamp electrophysiology, mutant α1F399Aβ3γ2L in HEK cells; type: cell-based, murine
T4 construct: expressed in transfected cells; host or cells: HEK 293 cells (ATCC CRL-1573)
T4 sequence (P62812 28-455 F426A): as the sequence (P62812 28-455) above, with F399A counted along it
T4 sequence (P63080 26-473 partner): as the sequence (P63080 26-473 partner) above
T4 sequence (P22723 39-474 partner): as the sequence (P22723 39-474 partner) above
Experimental: as §1, §2, §3, §4, §5
Current responses from voltage‐clamp experiments were measured, and decays fitted using ClampFit 10.2 (Molecular Devices) to determine the respective time constants. […]

[3] = molecular target: T5, α1F295A, F399Aβ3γ2L GABAAR (Mus musculus, UniProt P22723+P62812+P63080, F322A/F426A); test: Whole-cell voltage-clamp electrophysiology, mutant α1F295A,F399Aβ3γ2L in HEK cells; type: cell-based, murine
T5 construct: expressed in transfected cells; host or cells: HEK 293 cells (ATCC CRL-1573)
T5 sequence (P62812 28-455 F322A/F426A): as the sequence (P62812 28-455) above, with F295A, F399A counted along it
T5 sequence (P63080 26-473 partner): as the sequence (P63080 26-473 partner) above
T5 sequence (P22723 39-474 partner): as the sequence (P22723 39-474 partner) above
Experimental: as §1, §2, §3, §4, §5, §6

α1V296Lβ3γ2L GABAAR = molecular target: T6, α1V296Lβ3γ2L GABAAR (Mus musculus, UniProt P22723+P62812+P63080, V323L); test: Whole-cell voltage-clamp electrophysiology, minimally desensitising mutant α1V296Lβ3γ2L in HEK cells; type: cell-based, murine
T6 construct: expressed in transfected cells; host or cells: HEK 293 cells (ATCC CRL-1573)
T6 sequence (P62812 28-455 V323L): as the sequence (P62812 28-455) above, with V296L counted along it
T6 sequence (P63080 26-473 partner): as the sequence (P63080 26-473 partner) above
T6 sequence (P22723 39-474 partner): as the sequence (P22723 39-474 partner) above
Experimental: as §1, §2, §3, §4, §5, §6

α1β3γ2LV262F GABAAR = molecular target: T7, α1β3γ2LV262F GABAAR (Mus musculus, UniProt P62812); test: Whole-cell voltage-clamp electrophysiology, highly desensitising mutant α1β3γ2LV262F in HEK cells; type: cell-based, murine
T7 construct: expressed in transfected cells; host or cells: HEK 293 cells (ATCC CRL-1573)
T7 sequence (P62812 28-455): as the sequence (P62812 28-455) above
T7 sequence (P63080 26-473 partner): as the sequence (P63080 26-473 partner) above
T7 sequence (P22723 39-474 V300F partner): as the sequence (P22723 39-474 partner) above, with V262F counted along it
Experimental: as §1, §2, §3, §4, §5, §6

α1β3γ2L GABAAR [4] = molecular target: T2, α1β3γ2L GABAAR; test: Kinetic modelling and waveform fitting of GABA currents (ChanneLab); set-up: species or system murine; conditions: waveform fit
Experimental: We used ChanneLab (Version 2.2; Synaptosoft) to build relatively simple kinetic models of the GABAAR. To explore the functional behaviour of PS analogues (compounds) 5 and 6, we incorporated concentration‐dependent PS analogue‐bound states into the model. Simulated currents were generated in ChanneLab and explored at different GABA and PS analogue concentrations. These were evaluated against GABA currents generated under experimental conditions, using the waveform fitting function in ChanneLab. Rate constants connecting receptor states were determined initially empirically with reference to previously published values and varied individually to optimise the fit to the data (seed values) prior to using waveform fitting and Runge–Kutta numerical integration (RK5) to eventually simulate the experimental GABA current profiles with 50 iterations. GABA‐activated membrane currents were fitted over their full timecourse of 20 s.
To investigate, simplified GABAAR models were constructed, incorporating some or all the following receptor states: an unbound closed state (R); GABA‐bound closed ‘composite’ state (RA) that incorporates one or more preactivation states that are not explicitly indicated or a closed (RA) and separate preactivated (RfA) state; a GABA‐bound activated state (RA*); and a desensitised state (RD) accessed via the receptor's activated state. These simple models enable the generation of simulated GABA‐dependent currents, with values for the rate constants determined initially empirically in broad accord with published parameters and manually adjusted to provide seed values before performing waveform fitting with unconstrained rate constants (Figure 8a).
RA* is the activated receptor open channel before moving to a desensitised state RD.

[5] = Decay inhibition (pIC50), potency for reducing GABA current weighted decay time constant, 30 μM GABA
[6] = Peak inhibition (pIC50), peak current evoked by 30 μM GABA, analogue pre-applied 10–12 s and co-applied
[7] = Steady-state inhibition (IC50), GABA current after 20 s of 30 μM GABA (near steady state)
[8] = Steady-state inhibition (pIC50), GABA current after 20 s of 30 μM GABA (near steady state)
[9] = Decay inhibition (pIC50), GABA current weighted decay time constant
[10] = Steady-state inhibition (pIC50), 30 μM GABA, 20 s
[11] = Steady-state inhibition (pIC50), steady-state GABA current
[12] = Decay inhibition (IC50), GABA current weighted decay time constant

Compound: C[C@]12CC[C@H](OS(=O)(=O)O)CC1=CCC1C2CC[C@@]2(C)C1CC[C@@H]2C(=O)CN1CCOCC1 (stereo partly drawn) [compound 5]
- IC50 (α1β3γ2L GABAAR [1]; [5]): 117 µM
- IC50 (α1β3γ2L GABAAR [1]; [6]): ~2000 µM
- IC50 (α1β3γ2L GABAAR [1]; [7]): ~1 µM
- IC50 (α1β3γ2L GABAAR [1]; [8]): 0.843 µM
- mean (weighted) decay time (τw) of GABA current (α1β3γ2L GABAAR [2]): 3.7 ± 0.1 s
- IC50 (α1F295Aβ3γ2L GABAAR; [9]): 8.47 µM
- IC50 (α1F295Aβ3γ2L GABAAR; [10]): 2.93 µM
- IC50 (α1F399Aβ3γ2L GABAAR; [9]): 7.89 µM
- IC50 (α1F399Aβ3γ2L GABAAR; [10]): 8.36 µM
- IC50 [3, 9]: 7.21 µM
- IC50 [3, 10]: 5.22 µM
- IC50 (α1V296Lβ3γ2L GABAAR; [9]): 3.24 µM
- IC50 (α1V296Lβ3γ2L GABAAR; [11]): 20.7 µM
- IC50 (α1β3γ2LV262F GABAAR; [9]): 70.8 µM
- IC50 (α1β3γ2LV262F GABAAR; [11]): 14.2 µM
- rate constant k2, Model (b) (α1β3γ2L GABAAR [4]; Model (b): binding to RA forming RAP, then RAPd, 30 μM GABA): 62900 M⁻¹ s⁻¹
- rate constant k3, Model (b) (α1β3γ2L GABAAR [4]; Model (b), 30 μM GABA): 921000 s⁻¹

Compound: C[C@]12CC[C@H](OS(=O)(=O)O)CC1=CCC1C2CC[C@@]2(C)C1CC[C@@H]2C(=O)Cn1cccn1 (stereo partly drawn) [compound 6]
- IC50 (α1β3γ2L GABAAR [1]; [5]): 1.66 µM
- IC50 (α1β3γ2L GABAAR [1]; [6]): 220 ± 14.6 µM
- IC50 (α1β3γ2L GABAAR [1]; [7]): ~1 µM
- IC50 (α1β3γ2L GABAAR [1]; [8]): 1.13 µM
- mean (weighted) decay time (τw) of GABA current (α1β3γ2L GABAAR [2]): 3.8 ± 0.2 s
- fold difference in current decay potency, compound 6 vs compound 5 (α1β3γ2L GABAAR [2]; wild-type α1β3γ2L, decay IC50 of 5 vs 6): 70 fold
- IC50 (α1F295Aβ3γ2L GABAAR; [12]): 1.4 µM
- IC50 (α1F295Aβ3γ2L GABAAR; [9]): 1.35 µM
- IC50 (α1F295Aβ3γ2L GABAAR; [10]): 4.51 µM
- IC50 (α1F399Aβ3γ2L GABAAR; [9]): 1.49 µM
- IC50 (α1F399Aβ3γ2L GABAAR; [10]): 7.29 µM
- IC50 [3, 9]: 1.23 µM
- IC50 ([3]; Steady-state inhibition (IC50), 30 μM GABA, 20 s): 4.2 µM
- IC50 [3, 10]: 4.15 µM
- IC50 (α1V296Lβ3γ2L GABAAR; [12]): > 100 µM
- IC50 (α1V296Lβ3γ2L GABAAR; Steady-state inhibition (IC50), steady-state GABA current): > 100 µM
- IC50 (α1β3γ2LV262F GABAAR; [9]): 2.88 µM
- IC50 (α1β3γ2LV262F GABAAR; [11]): 25.1 µM
- rate constant k4, Model (c) (α1β3γ2L GABAAR [4]; Model (c): binding to RA (RAP) and RD (RDP), 30 μM GABA): 234000 M⁻¹ s⁻¹
- rate constant k2, Model (c) (α1β3γ2L GABAAR [4]; Model (c), 30 μM GABA): 129000 M⁻¹ s⁻¹
- rate constant k‐4, Model (c) (α1β3γ2L GABAAR [4]; Model (c), 30 μM GABA): 184 s⁻¹
- rate constant k2, Model (d) (α1β3γ2L GABAAR [4]; Model (d): binding to preactivated state RfA (RfAP) and RD): 173000 M⁻¹ s⁻¹
- rate constant k4, Model (d) (α1β3γ2L GABAAR [4]; Model (d)): 184000 M⁻¹ s⁻¹
- rate constant k‐4, Model (d) (α1β3γ2L GABAAR [4]; Model (d)): 307 s⁻¹

Compound: CC12CCC(OS(=O)(=O)O)CC1=CCC1C2CCC2(C)C(C(=O)Cn3cccc3)CCC12 (stereo not drawn) [compound 8]
- IC50 (α1β3γ2L GABAAR [1]; [5]): 3.23 µM
- IC50 (α1β3γ2L GABAAR [1]; [6]): 33.3 µM
- IC50 (α1β3γ2L GABAAR [1]; [8]): 0.236 µM
- mean (weighted) decay time (τw) of GABA current (α1β3γ2L GABAAR [2]): 3.6 ± 0.3 s
